Activity calls are given as the source filed them. The rule behind the calls is not given here. Peptide text beside a SMILES is read from it.
How the values were obtained:
Jurkat [1] = experiment: (§1) Activity on rosetting of jurkat T-cells with SRBC at the concentration of 10e-4 M; format: functional, Homo sapiens
Jurkat [2] = experiment: Activity on rosetting of jurkat T-cells with SRBC at the concentration of 0 M; format: functional, Homo sapiens
Jurkat [3] = experiment: (§2) Activity on rosetting of jurkat T-cells with SRBC at the concentration of 10e-8 M; format: functional; settings: Homo sapiens
Jurkat [4] = experiment: as §1; format: functional; settings: Homo sapiens
Jurkat [5] = experiment: (§3) Activity on rosetting of jurkat T-cells with SRBC at the concentration of 10e-9 M; format: functional, Homo sapiens
Jurkat [6] = experiment: Activity on rosetting of jurkat T-cells with SRBC at the concentration of 10e-10 M; Not Determined; format: functional, Homo sapiens
Jurkat [7] = experiment: (§4) Activity on rosetting of jurkat T-cells with SRBC at the concentration of 10e-7 M; format: functional; settings: Homo sapiens
Jurkat [8] = experiment: as §4; format: functional, Homo sapiens
Jurkat [9] = experiment: Activity on rosetting of jurkat T-cells with SRBC at the concentration of 10e-11 M; Not Significant; format: functional, cell-based; settings: Homo sapiens
Jurkat [10] = experiment: as §2; format: functional, Homo sapiens
Jurkat [11] = experiment: Activity on rosetting of jurkat T-cells with SRBC at the concentration of 10e-12 M; Not Significant; format: functional, cell-based; settings: Homo sapiens
Jurkat [12] = experiment: (§5) Activity on rosetting of jurkat T-cells with SRBC at the concentration of 10e-10 M; format: functional; settings: Homo sapiens
Jurkat [13] = experiment: (§6) Activity on rosetting of jurkat T-cells with SRBC at the concentration of 10e-6 M; format: functional, Homo sapiens
Jurkat [14] = experiment: (§7) Activity on rosetting of jurkat T-cells with SRBC at the concentration of 10e-11 M; format: functional, Homo sapiens
Jurkat [15] = experiment: (§8) Activity on rosetting of jurkat T-cells with SRBC at the concentration of 10e-5 M; format: functional; settings: Homo sapiens
Jurkat [16] = experiment: as §6; format: functional; settings: Homo sapiens
Jurkat [17] = experiment: as §8; format: functional, Homo sapiens
Jurkat [18] = experiment: as §3; format: functional; settings: Homo sapiens
Jurkat [19] = experiment: (§9) Activity on rosetting of jurkat T-cells with SRBC at the concentration of 10e-12 M; format: functional, Homo sapiens
Jurkat [20] = experiment: (§10) Activity on rosetting of jurkat T-cells with SRBC at the concentration of 10e-13 M; format: functional, Homo sapiens
Jurkat [21] = experiment: Activity on rosetting of jurkat T-cells with SRBC at the concentration of 10e-15 M; Not significant; format: functional, cell-based; settings: Homo sapiens
Jurkat [22] = experiment: (§11) Activity on rosetting of jurkat T-cells with SRBC at the concentration of 10e-14 M; format: functional, Homo sapiens
Jurkat [23] = experiment: as §5; format: functional, Homo sapiens
Jurkat [24] = experiment: as §9; format: functional; settings: Homo sapiens
Jurkat [25] = experiment: as §11; format: functional; settings: Homo sapiens
Jurkat [26] = experiment: Activity on rosetting of jurkat T-cells with SRBC at the concentration of 10e-15 M; format: functional, Homo sapiens
Jurkat [27] = experiment: as §7; format: functional; settings: Homo sapiens
Jurkat [28] = experiment: as §10; format: functional; settings: Homo sapiens

**Q.** Which “No. of rosettes/100 Jurkat T cells” value (Jurkat [1]) does the source give for `CC(=O)N[C@@H](CO)C(=O)N[C@@H](CC(=O)O)C(=O)N[C@@H](CCCCN)C(=O)O` (Ac-Ser-Asp-Lys-OH) here?
**A.** 35

**Q.** What about the “No. of rosettes/100 Jurkat T cells” value (Jurkat [2]) of the same molecule?
**A.** 63

**Q.** What about the inhibition at 0.01 µM (Jurkat [3]) of the same molecule?
**A.** 23%

**Q.** What about the inhibition at 100 µM (Jurkat [4]) of the same molecule?
**A.** 44%

**Q.** And the “No. of rosettes/100 Jurkat T cells” value (Jurkat [5])?
**A.** 51

**Q.** And the “No. of rosettes/100 Jurkat T cells” value (Jurkat [6])?
**A.** 56

**Q.** What about the inhibition at 0.1 µM (Jurkat [7]) of the same molecule?
**A.** 27%

**Q.** What about the “No. of rosettes/100 Jurkat T cells” value (Jurkat [8]) of the same molecule?
**A.** 45

**Q.** And the inhibition (Jurkat [9])?
**A.** inactive

**Q.** And the “No. of rosettes/100 Jurkat T cells” value (Jurkat [10])?
**A.** 48

**Q.** And the inhibition (Jurkat [11])?
**A.** inactive

**Q.** And the inhibition at 0.0001 µM (Jurkat [12])?
**A.** 10%

**Q.** And the “No. of rosettes/100 Jurkat T cells” value (Jurkat [13])?
**A.** 38

**Q.** And the “No. of rosettes/100 Jurkat T cells” value (Jurkat [14])?
**A.** 62

**Q.** And the inhibition at 10 µM (Jurkat [15])?
**A.** 40%

**Q.** And the inhibition at 1 µM (Jurkat [16])?
**A.** 39%

**Q.** And the “No. of rosettes/100 Jurkat T cells” value (Jurkat [17])?
**A.** 37

**Q.** And the inhibition at 0.001 µM (Jurkat [18])?
**A.** 18%

**Q.** And the “No. of rosettes/100 Jurkat T cells” value (Jurkat [19])?
**A.** 59

**Q.** Which results are given for `NCCCC[C@H](NC(=O)[C@H](CC(=O)O)NC(=O)[C@@H](N)CO)C(=O)O` (H-Ser-Asp-Lys-OH)?
**A.** No. of rosettes/100 Jurkat T cells (Jurkat [20]): 51; No. of rosettes/100 Jurkat T cells (Jurkat [1]): 38; No. of rosettes/100 Jurkat T cells (Jurkat [2]): 63; inhibition at 0.01 µM (Jurkat [3]): 36%; inhibition at 100 µM (Jurkat [4]): 40%; No. of rosettes/100 Jurkat T cells (Jurkat [5]): 43; inhibition (Jurkat [21]): inactive; inhibition at 0.1 µM (Jurkat [7]): 22%; No. of rosettes/100 Jurkat T cells (Jurkat [22]): 55; No. of rosettes/100 Jurkat T cells (Jurkat [23]): 43; inhibition at 1 pM (Jurkat [24]): 30%; No. of rosettes/100 Jurkat T cells (Jurkat [8]): 49; No. of rosettes/100 Jurkat T cells (Jurkat [10]): 40; inhibition at 0.0001 µM (Jurkat [12]): 32%; No. of rosettes/100 Jurkat T cells (Jurkat [13]): 50; inhibition at 10 fM (Jurkat [25]): 14%; No. of rosettes/100 Jurkat T cells (Jurkat [26]): 63; No. of rosettes/100 Jurkat T cells (Jurkat [14]): 40; inhibition at 10 pM (Jurkat [27]): 36%; inhibition at 10 µM (Jurkat [15]): 28%; inhibition at 1 µM (Jurkat [16]): 22%; No. of rosettes/100 Jurkat T cells (Jurkat [17]): 45; inhibition at 100 fM (Jurkat [28]): 19%; inhibition at 0.001 µM (Jurkat [18]): 32%; No. of rosettes/100 Jurkat T cells (Jurkat [19]): 44

— ChEMBL document CHEMBL1124866, “Synthesis and activity of NAcSerAspLysPro analogues on cellular interactions between T-cell and erythrocytes in rosette formation” (1990)
